The test system of test [1] is Mus musculus. Briefly: Neurobehavioral effect on Swiss Webster mouse assessed as catalepsy latency time at 20 mg/kg, ip (reference value: 2.1 +/- 0.60 secs) by mouse tetrad assay. In kind it is functional.
For test [2], the system named is Mus musculus. The test is described as follows: Neurobehavioral effect on Swiss Webster mouse assessed as tail-flick latency time at 20 mg/kg, ip (reference value: 0.84 +/- 3.58 %) by mouse tetrad assay. In kind it is functional.
The test system of test [3] is Mus musculus. Briefly: Neurobehavioral effect on Swiss Webster mouse assessed as hot plate latency time at 20 mg/kg, ip (reference value: 8.32 +/- 2.20 %) by mouse tetrad assay. Format: functional.
Test [4] concerns the target Cannabinoid receptor 2 (Homo sapiens, UniProt P34972). The test is described as follows: Displacement of [3H]CP55940 from full length human recombinant CB2 receptor expressed in HEK293 cells after 90 mins by scintillation counting analysis. In kind it is cell-based.
For test [5], the system named is Mus musculus. Briefly: Neurobehavioral effect on Swiss Webster mouse assessed as decrease in rectal temperature at 20 mg/kg, ip (reference value: 0.58 +/- 0.26 degC) by mouse tetrad assay. Format: functional.
For test [6], the system named is Mus musculus. The test is described as follows: Neurobehavioral effect on Swiss Webster mouse assessed as locomotor activity measured as total number of interruptions at 20 mg/kg, ip monitored for 30 mins (reference value: 2091 +/- 209.3) by mouse tetrad assay. Format: functional.
Test [7] deals with Cannabinoid receptor 1 (Homo sapiens, UniProt P21554). The test is described as follows: Displacement of [3H]CP55940 from full length human recombinant CB1 receptor expressed in HEK293 cells after 90 mins by scintillation counting analysis. In kind it is cell-based. For orientation: Displacement assays read how much labelled ligand stays bound in the presence of the test substance.
Cannabinoid receptor 1, sequence (P21554 whole entry): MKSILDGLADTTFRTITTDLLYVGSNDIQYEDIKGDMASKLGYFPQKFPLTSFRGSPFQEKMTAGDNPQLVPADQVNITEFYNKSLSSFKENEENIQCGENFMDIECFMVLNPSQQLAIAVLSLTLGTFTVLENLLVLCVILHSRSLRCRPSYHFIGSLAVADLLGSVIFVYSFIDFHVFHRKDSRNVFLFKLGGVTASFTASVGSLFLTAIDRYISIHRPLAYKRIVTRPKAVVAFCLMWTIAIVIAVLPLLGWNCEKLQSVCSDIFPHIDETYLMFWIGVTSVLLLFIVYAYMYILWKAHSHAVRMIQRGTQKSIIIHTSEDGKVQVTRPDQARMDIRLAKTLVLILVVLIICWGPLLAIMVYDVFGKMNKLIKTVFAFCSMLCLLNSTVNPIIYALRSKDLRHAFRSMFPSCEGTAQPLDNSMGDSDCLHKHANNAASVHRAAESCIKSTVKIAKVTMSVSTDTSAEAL

In test [8] the test system is Mus musculus. Briefly: Neurobehavioral effect on Swiss Webster mouse assessed as locomotor activity measured as total number of interruptions at 40 mg/kg, ip monitored for 30 mins (reference value: 2091 +/- 209.3) by mouse tetrad assay. In kind it is functional.
Test [9] deals with Mus musculus. The test is described as follows: Neurobehavioral effect on Swiss Webster mouse assessed as decrease in rectal temperature at 10 mg/kg, ip (reference value: 0.58 +/- 0.26 degC) by mouse tetrad assay. Format: functional.
Test [10] concerns Mus musculus. The test is described as follows: Neurobehavioral effect on Swiss Webster mouse assessed as catalepsy latency time at 10 mg/kg, ip (reference value: 2.1 +/- 0.60 secs) by mouse tetrad assay. In kind it is functional.
Test [11] concerns Mus musculus. Briefly: Neurobehavioral effect on Swiss Webster mouse assessed as hot plate latency time at 40 mg/kg, ip (reference value: 8.32 +/- 2.20 %) by mouse tetrad assay. Format: functional.
For test [12], the system named is Mus musculus. The test is described as follows: Neurobehavioral effect on Swiss Webster mouse assessed as tail-flick latency time at 40 mg/kg, ip (reference value: 0.84 +/- 3.58 %) by mouse tetrad assay. Format: functional. In general terms: Thermal pain tests record how soon the animal reacts.
The test system of test [13] is Mus musculus. Briefly: Neurobehavioral effect on Swiss Webster mouse assessed as locomotor activity measured as total number of interruptions at 10 mg/kg, ip monitored for 30 mins (reference value: 2091 +/- 209.3) by mouse tetrad assay. In kind it is functional.
For test [14], the system named is Mus musculus. The test is described as follows: Neurobehavioral effect on Swiss Webster mouse assessed as tail-flick latency time at 10 mg/kg, ip (reference value: 0.84 +/- 3.58 %) by mouse tetrad assay. In kind it is functional.
The test system of test [15] is Mus musculus. Briefly: Neurobehavioral effect on Swiss Webster mouse assessed as catalepsy latency time at 40 mg/kg, ip (reference value: 2.1 +/- 0.60 secs) by mouse tetrad assay. In kind it is functional.
For test [16], the system named is Mus musculus. Briefly: Neurobehavioral effect on Swiss Webster mouse assessed as decrease in rectal temperature at 40 mg/kg, ip (reference value: 0.58 +/- 0.26 degC) by mouse tetrad assay. In kind it is functional.
For test [17], the system named is Mus musculus. The test is described as follows: Neurobehavioral effect on Swiss Webster mouse assessed as hot plate latency time at 10 mg/kg, ip (reference value: 8.32 +/- 2.20 %) by mouse tetrad assay. In kind it is functional.
For test [18], the system named is Mus musculus. Briefly: Neurobehavioral effect on Swiss Webster mouse assessed as catalepsy latency time at 5 mg/kg, ip (reference value: 2.1 +/- 0.60 secs) by mouse tetrad assay. In kind it is functional.
Test [19] relates to Mus musculus. The test is described as follows: Neurobehavioral effect on Swiss Webster mouse assessed as locomotor activity measured as total number of interruptions at 5 mg/kg, ip monitored for 30 mins (reference value: 2091 +/- 209.3) by mouse tetrad assay. Format: functional.
The test system of test [20] is Mus musculus. Briefly: Neurobehavioral effect on Swiss Webster mouse assessed as tail-flick latency time at 5 mg/kg, ip (reference value: 0.84 +/- 3.58 %) by mouse tetrad assay. Format: functional.
The subject of test [21] is Mus musculus. Briefly: Neurobehavioral effect on Swiss Webster mouse assessed as hot plate latency time at 5 mg/kg, ip (reference value: 8.32 +/- 2.20 %) by mouse tetrad assay. In kind it is functional.
The subject of test [22] is Mus musculus. The test is described as follows: Neurobehavioral effect on Swiss Webster mouse assessed as decrease in rectal temperature at 5 mg/kg, ip (reference value: 0.58 +/- 0.26 degC) by mouse tetrad assay. In kind it is functional.

Each structure is given as a SMILES string.

Data on ten molecules can be found in ChEMBL document CHEMBL3585261, “Isolation and Pharmacological Evaluation of Minor Cannabinoids from High-Potency Cannabis sativa” (J Nat Prod, 2015).

Cannabinoid receptor 2, sequence (P34972 whole entry): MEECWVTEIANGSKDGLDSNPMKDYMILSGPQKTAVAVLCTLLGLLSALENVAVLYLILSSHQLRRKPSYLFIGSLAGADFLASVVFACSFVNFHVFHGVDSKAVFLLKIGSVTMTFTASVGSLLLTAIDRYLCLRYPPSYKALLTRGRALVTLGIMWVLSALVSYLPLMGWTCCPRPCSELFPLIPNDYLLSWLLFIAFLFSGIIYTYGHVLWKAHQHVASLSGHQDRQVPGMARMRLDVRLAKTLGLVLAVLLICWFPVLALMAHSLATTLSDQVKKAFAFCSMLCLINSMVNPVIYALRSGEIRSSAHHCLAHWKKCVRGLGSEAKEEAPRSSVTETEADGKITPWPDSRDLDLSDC

Usually Ki stands for a dissociation constant, usually derived from enzyme kinetics or from competition with a known ligand. As for `CCCCCc1cc(O)c2c(c1)OC(C)(C)[C@@H]1C[C@H](O)C(C)=C[C@@H]21`, the Time in test [1] worked out at 1.5 s. Also, the MPE in test [2] worked out at 5.01%; in test [3], 4.95%. In addition, the inhibitory constant (Ki) in test [4] is 3220 nM; in test [7], 1910 nM. The T in test [5] is 0.58 °C. The Activity in test [6] is on record as 908.9.

For `CCCCCc1cc(O)c2c(c1)OC(C)(C)[C@@H]1C[C@@H](O)C(C)=C[C@@H]21`, the Time in test [1] amounted to 1.43 s; in test [10], 1.143 s; in [15], 11.43 s. The MPE in test [2] worked out at 1.62%; in test [3] it was 2.04%; in test [11], 11.79%; in test [12], 12.69%; in test [14], 0.13%; in test [17], 11.83%. Moreover, the Activity was 777.4 in [8], 1148 in test [6] and 1617 in test [13]. The T in [9] stood at 0.49 °C; in test [5], 0.5 °C; in test [16], 0.91 °C. In addition, the Ki was determined as 88 nM in test [4] and 65 nM in test [7].

For `CCCCCc1cc(O)c2c(c1)OC(C)(C)[C@@H]1CC=C(C)[C@H](O)[C@@H]21`, the Time worked out at 51.1 s in test [1], 23.9 s in test [10] and 22 s in test [18]. Moreover, the MPE in test [2] stood at 90.16%; in test [3], 47.63%; in test [20], 37.4%; in test [21], 21.04%; in test [14], 31.46%; in test [17], 56.33%. Moreover, the figures for the T in [9], in [5] and in test [22] were 3.21 °C, 5.38 °C and 2.46 °C, respectively. Besides, the Activity worked out at 318.1 in test [19], 301.9 in test [6] and 288.3 in test [13]. Further, the inhibition constant (Ki) in test [4] came to 30 nM; in test [7], 31 nM.

Consider `CCCCCc1cc(O)c2c(c1)OC(C)(C)[C@@H]1CC=C(C)[C@@H](O)[C@@H]21`, for which the Activity stood at 2537 in test [8] and 3045 in test [13]. For the same molecule, the T in test [9] came to 0.47 °C; in [16], 5.32 °C. The Time in test [10] was determined as 1.4 s; in test [15] it was 13.7 s. In addition, the Ki was determined as 3270 nM in test [4] and 830 nM in test [7]. The MPE in test [11] is reported as 55.65%; in test [12] it was 69.95%; in test [14] it was 2.2%; in test [17], 6.819%.

Turning to `C=C1CC[C@@H]2[C@H](c3c(O)cc(CCCCC)cc3OC2(C)C)[C@H]1O`, the Ki in [4] worked out at 129 nM; in test [7] it was 117 nM.

For the molecule `CCCCCc1cc(O)c2c(c1)OC(C)(C)[C@@H]1CC[C@@]3(C)O[C@H]3[C@@H]21`, the Time is reported as 27.5 s in test [1], 8.8 s in test [10] and 23.8 s in [18]. Also, the MPE is 50.37% in test [2]; 49.39% in [3]; 16.25% in test [20]; 36.98% in test [21]; 82.71% in [14]; 35.89% in test [17]. Besides, the T came out at 3.11 °C in test [9], 4.58 °C in test [5] and 3.75 °C in test [22]. Also, the figures for the Activity in test [19], in [6] and in test [13] were 213.4, 380.3 and 291.2, respectively. In addition, the Ki in test [4] came to 335 nM; in [7] it was 224 nM.

`CCCCCc1cc2c(c(O)c1C(=O)O)[C@@H]1C=C(COC(C)=O)CC[C@H]1C(C)(C)O2`: the Ki in test [4] is 912 nM; in [7], 47 nM.

With `CCCCCc1cc(O)c2c(c1)OC(C)(C)[C@@H]1CC[C@](C)(O)[C@@H](O)[C@@H]21`, the Time in test [1] came to 2.25 s. Also, the MPE in test [2] amounted to 2.98%; in test [3], 2.4%. The inhibition constant Ki in test [4] was found to be 2140 nM; in test [7], 5670 nM. The T in [5] stood at 0.45 °C. In addition, in [6], the Activity was found to be 1892.

Take `CCCCCc1cc(O)c2c(c1)OC(C)(C)[C@@H]1CC=C(C)C[C@@H]21` [DELTA-8-TETRAHYDROCANNABINOL]: the Time in test [1] was 5.3 s; in test [18], 1.6 s. Further, the MPE in [2] stood at 5.97%; in test [3], 16.98%; in [20], 8.01%; in test [21], 12.82%. Also, the Activity in test [19] was found to be 1480; in test [6], 377.4. Also, the T in [5] is 1.96 °C; in test [22] it was 0.12 °C.

Turning to `CCCCCc1cc(O)c2c(c1)OC(C)(C)[C@@H]1CCC(C)=C[C@@H]21` [DRONABINOL], the figures for the Time in test [1], in [10] and in [15] were 47.9 s, 14.4 s and 37.7 s, respectively. The MPE in test [2] was found to be 42.21%; in test [3] it was 46.85%; in [11] it was 38.18%; in test [12], 51.96%; in [14] it was 6.52%; in test [17], 29.04%. Further, the Activity is 194 in [8], 276.2 in test [6] and 190.9 in test [13]. For the same molecule, the T is 2.05 °C in test [9], 4.25 °C in test [5] and 4.8 °C in test [16].
